Patent US9546129B2, “DTPA prodrugs, compositions thereof, and methods of using the same” (priority 2012, dated 2017)
≈ marks a conversion by molar mass, not a printed value.

Legend:
[1] = system: ^241Am contaminated rats; assay: Once vs twice daily dosing ^241Am decorporation study in rats; format: in vivo, Sprague Dawley rat; conditions: for Total Decorporation: seven days after IM ^241Am
Description: The animal study was conducted according to a protocol approved by The University of North Carolina at Chapel Hill Institutional Animal Care and Use Committee. Sixteen male Sprague Dawley rats were contaminated with ^241Am(NO3)3 (0.25 μCi) by intramuscular injection (0.1 mL, 0.1 M HNO3) into the right hind leg, under isoflurane anesthesia. Immediately after injection, body weights were recorded (Day 0 weight) and animals placed in individual metabolic cages. The 16 rats were assigned to four groups; untreated control, 5 daily oral gavage doses of 600 mg/kg C2E2 once daily, 5 days of oral gavage treatment of 300 mg/kg C2E2 twice daily or 5 daily intravenous doses of Zn-DTPA solution (13.3 mg/kg) via a jugular vein catheter. The C2E2 was from Lot 050 obtained using Method 2. The C2E2 dosing solution utilized was a 10% w/w solution in water. […] Excreted urine and feces were collected at 2, 4, 8, 10, 12, 14, 18, 20 and 24 hours after the first dose and daily for the remainder of the study. The samples were transferred to 20 mL scintillation vials, weighed and placed in a gamma counter (Wizard2 2480, Perkin Elmer) for detection of ^241Am gamma activity. In addition, following necropsy, selected tissues were removed, weighed and placed in a gamma counter (Wizard2 2480, Perkin Elmer) for detection of ^241Am gamma activity. The total amount of ^241Am administered to the animals was determined by quantifying the 59.7 keV photons emitted by ^241Am in duplicate aliquots (100 μL) of the injection solution using a gamma counter (wizard series, Perkin-Elmer). A counting window from 40-80 keV and a 60-second counting time were used for acquisition and each reading was corrected for background at acquisition. All experimental tissues and samples were counted using the same gamma counter and protocol. For all the samples, ^241Am content was expressed as a percentage of the initial dose. The femur from the leg opposite to the injection site was scaled by a factor of 20 to estimate total skeletal ^241Am burden.

[2] = Aqueous solubility, preliminary test; format: physicochemical; conditions: thermodynamic from solid; distilled water, 10 minutes stirring, visual check, sample JH012B; read-out: Approximate solubility
Description: A small sample of C2E2 (0.1 g, JH012B) was weighed out and placed in a 25 mL graduated cylinder. Increasing volumes of distilled water were added according to the chart below:
After each addition of the indicated amount of water, the mixture was stirred for 10 minutes and visually checked for any dissolved parts of the sample. […] The approximate solubility is therefore 10-50 g/L.

CCOC(=O)CN(CCN(CCN(CC(=O)O)CC(=O)OCC)CC(=O)O)CC(=O)O [C2E2, 6,9-bis(carboxymethyl)-3-(2-ethoxy-2-oxoethyl)-11-oxo-12-oxa-3,6,9-triazatetradecan-1-oic acid]
Effect of dividing the dosage (twice daily vs once daily) on total decorporation ([1]; 300 mg/kg BD vs 600 mg/kg OD, male rats): did not significantly alter total decorporation
Total Decorporation ([1]; C2E2 300 mg/kg oral gavage twice daily for 5 days, male rats): 43.6 ± 1.6 % of injected dose
Total Decorporation ([1]; C2E2 600 mg/kg oral gavage once daily x5, male rats): 39.7 ± 2.6 % of injected dose
solubility at 10 min [2]: 10 to 50 mg/mL (≈ 22.2 to 111 mM)
